Results taken from publication PMC9935901, “B-lymphoid tyrosine kinase-mediated FAM83A phosphorylation elevates pancreatic tumorigenesis through interacting with β-catenin” (Signal Transduction and Targeted Therapy, 2023).

Tests used:
[1] = test system: PANC-1 xenograft tumor (FAM83A re-expression); assay: Mouse xenograft of FAM83A re-expressing PANC-1 cells, Wnt inhibitor; format: in vivo, nude mice (human PANC-1 cells); details: 20 mg/kg intravenous (Fig. 6 legend) or 50 mg/kg intraperitoneal twice a week (methods); n = 6 or 5
Description: The Wnt inhibitor XAV939 (20 mg/kg) was intravenously injected into the caudal vein of the nude mice one week later after xenograft formation. c Growth curve showing the changes in the tumor volume in mice in different groups from the injection (n = 6 or 5). d Weight of the excised tumors in each group (n = 6 or 5). e, f Representative images of lung and colon metastasis of the nude mice model that tail intravenous injected with PANC-1 cells stably expressed Flag-tagged wild-type FA[MUT], [MUT], or [MUT] mutants were shown. g The number of lung or colon metastasis was quantified per field (n = 5). h, i Representative images and quantification of the soft agarose and plate colony formation assays of PANC-1 cells stably expressed Flag-tagged wild-type FA[MUT], [MUT], or [MUT] mutants (n = 3). j, k Representative images and quantification of the transwell assays without matrigel of PANC-1 cells stably expressed Flag-tagged wild-type FA[MUT], [MUT] or [MUT] mutants (n = 3). l Representative H&E staining images and immunohistochemical images of Ki67, C-myc, and AXIN2 expression in excised tumors tissues. *P < 0.05; **P < 0.01; ***P < 0.001. […] The length and width of the mouse xenograft tumors were measured every 5 days with calipers, and tumor volume (V) was calculated with the following formula: V = [(length × width × width)/2]. […]

[2] = test system: BLK (FAM83A tyrosine phosphorylation); assay: BLK-mediated FAM83A tyrosine phosphorylation in HEK293T cells; format: cell-based; details: 10 μM; HEK293T with or without BLK overexpression; n = 3
Text: Cell lysates were used for IP and western blotting with the indicated antibodies (n = 3). f Level of total tyrosine phosphorylation of Flag-tagged FAM83A and its Y138A mutant in HEK293T cells after BLK kinase knockdown using two specific small interfering RNAs (siBLK#1 and siBLK#2). Cell lysates were used for IP and western blotting with the indicated antibodies (n = 3). g, h Level of total tyrosine phosphorylation of Flag-tagged FAM83A and its Y138A mutant in HEK293T cells with or without BLK kinase overexpression and saracatinib (BLK inhibitor, 10 μM)/PP2 (LCK or FYN inhibitor, 10 μM) treatment. Cell lysates were used for IP and western blotting with the indicated antibodies (n = 3). i The BLK kinases was obtained from the immunoprecipitate of HEK293T cell lysates that transfected with either HA-tagged BLK wild-type, BLK kinase-dead mutant (Y389A) or BLK constitutive activated mutant with the deletion of the C-terminal auto-inhibitory domain (BLK ΔC) using HA tag antibody. Then the BLK kinases were incubated with the in vitro purified GST-tagged FAM83A protein at 30 °C for 30 min with or without BLK inhibitor saracatinib, and then the reaction products were subjected to western blotting assay (n = 3)
Immunoprecipitation and Western blotting were performed as described previously.[35] GAPDH protein levels were used as loading controls. […]

[3] = test system: pancreatic cancer stem cells (PaCSCs), primary PDAC cultures; details: primary PDAC cultures from patient-derived xenografts; ref not given; cited from earlier work
Text: Intricate communication between pancreatic cancer cells and their surrounding environment is driven by a dynamic signaling network of cellular and matrix remodeling enzymes, cytokines, chemokines, and growth factors, which collectively promote tumor growth and treatment resistance. The non-receptor SRC kinase family signaling network is increasingly recognized as a key player in pancreatic tumorigenesis.[38],[39] Treatment of primary PDAC cultures established from patient-derived xenografts with dasatinib or PP2 reduced the clonogenic, self-renewal, and tumor-initiating capacity of pancreatic ...

Row | SMILES | xenograft tumor size [1] | FAM83A tyrosine phosphorylation [2] | clonogenic, self-renewal, and tumor-initiating capacity of PaCSCs [3]
1 | Oc1nc(-c2ccc(C(F)(F)F)cc2)nc2c1CSCC2 [XAV939] | inhibits the xenograft tumor size mediated by FAM83A re-expression | – | –
2 | CC(C)(C)n1nc(-c2ccc(Cl)cc2)c2c(N)ncnc21 [PP2] | – | not LYN kinase inhibitor PP2 | reduced the clonogenic, self-renewal, and tumor-initiating capacity of pancreatic cancer stem cells
3 | Cc1nc(Nc2ncc(C(=O)Nc3c(C)cccc3Cl)s2)cc(N2CCN(CCO)CC2)n1 [dasatinib] | – | – | reduced the clonogenic, self-renewal, and tumor-initiating capacity of pancreatic cancer stem cells
4 | CN1CCN(CCOc2cc(OC3CCOCC3)c3c(Nc4c(Cl)ccc5c4OCO5)ncnc3c2)CC1 [saracatinib] | – | could be reduced by the BLK kinase inhibitor saracatinib | –
